The results in this text go back to ChEMBL document CHEMBL1136244, “Synthesis and structure-activity relationships of 1-arylmethyl-3-(2-aminopropyl)-5-aryl-6-methyluracils as potent GnRH receptor antagonists” (Bioorg Med Chem Lett, 2003).

For orientation: Ki means a dissociation constant, usually derived from enzyme kinetics or from competition with a known ligand. The term IC50 denotes the concentration needed to halve the response being measured.

Experiment [1] addresses T1, Gonadotropin-releasing hormone receptor (Homo sapiens, UniProt P30968).
T1 sequence (P30968 whole entry): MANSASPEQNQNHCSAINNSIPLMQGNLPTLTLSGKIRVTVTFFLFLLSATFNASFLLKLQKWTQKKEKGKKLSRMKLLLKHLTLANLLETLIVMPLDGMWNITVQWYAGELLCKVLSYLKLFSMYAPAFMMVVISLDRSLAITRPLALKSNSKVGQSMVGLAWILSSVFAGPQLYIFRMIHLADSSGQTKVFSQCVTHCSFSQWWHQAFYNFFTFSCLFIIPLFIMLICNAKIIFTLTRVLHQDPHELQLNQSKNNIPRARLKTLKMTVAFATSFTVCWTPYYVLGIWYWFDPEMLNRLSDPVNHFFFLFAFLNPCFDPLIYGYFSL
The experiment can be described thus: Ability to inhibit des-Gly10[125I]Tyr5,DLeu6,NMeLeu7, Pro9-NEt]-GnRH radioligand binding to the cloned human gonadotropin-releasing hormone receptor stably expressed in HEK293 cells. The experiment is classed as cell-based.

The nature of experiment [2]: Inhibition of GnRH-stimulated [Ca2+] influx. The format is functional.

Structures are written as SMILES.

`COc1cccc(-c2c(C)n(Cc3c(F)cccc3F)c(=O)n(C[C@H](C)N(C)CCc3ccccn3)c2=O)c1` yielded an inhibition constant Ki in experiment [1] of 890 nM.
`COc1cccc(-c2c(C)n(Cc3c(F)cccc3F)c(=O)n(C[C@H](C)N(C)Cc3ccccc3)c2=O)c1` showed an inhibition constant (Ki) in experiment [1] of 250 nM. Compared with the last compound, the Ki is about 3.6-fold lower.
As for `COc1cccc(-c2c(C)n(Cc3c(F)cccc3F)c(=O)n(CC(C)N(C)CCc3ccccn3)c2=O)c1` (centres undefined), in experiment [1], the inhibitory constant (Ki) amounted to 12 nM.
`COc1cccc(-c2c(C)n(Cc3c(F)cccc3F)c(=O)n(C[C@@H](C)N(C)Cc3ccccn3)c2=O)c1` had a half-inhibitory concentration (IC50) in experiment [2] of 2.5 nM. This lies in the single-digit nanomolar range.
Compound `COc1cccc(-c2c(C)n(Cc3c(F)cccc3F)c(=O)n(CCN(C)Cc3ccccn3)c2=O)c1` gave an inhibition constant Ki in experiment [1] of 96 nM.
Still for that read-out and setting: under `COc1cccc(-c2c(C)n(Cc3c(F)cccc3F)c(=O)n(CC(C)NCc3ccccn3)c2=O)c1` (centres undefined) stands 53 nM; under `COc1cccc(-c2c(C)n(Cc3c(F)cccc3F)c(=O)n(C[C@@H](C)N(C)Cc3ccccc3)c2=O)c1`, 330 nM; under `COc1cccc(-c2c(C)n(Cc3c(F)cccc3F)c(=O)n(CC(C)N(C)CCCOCC(C)C)c2=O)c1` (centres undefined), 240 nM.
The same measure, in the same setting: under `COc1cccc(-c2c(C)n(Cc3c(F)cccc3F)c(=O)n(C[C@@H](C)NCCc3ccccn3)c2=O)c1` stands 79 nM; under `COc1cccc(-c2c(C)n(Cc3c(F)cccc3F)c(=O)n(C[C@@H](C)NCc3ccccc3)c2=O)c1`, 130 nM.
On the same count and under the same terms, under `COc1cccc(-c2c(C)n(Cc3c(F)cccc3F)c(=O)n(C[C@H](C)NCc3ccccn3)c2=O)c1` stands 460 nM.
`COc1cccc(-c2c(C)n(Cc3c(F)cccc3F)c(=O)n(C[C@@H](C)NCc3ccccn3)c2=O)c1` gave an inhibitory constant (Ki) in experiment [1] of 15 nM.
Same read-out and setting: as for `COc1cccc(-c2c(C)n(Cc3c(F)cccc3F)c(=O)n(C[C@H](C)NCc3ccccc3)c2=O)c1`, the figure is 140 nM; as for `COc1cccc(-c2c(C)n(Cc3c(F)cccc3F)c(=O)n(C[C@H](C)NCCc3ccccn3)c2=O)c1`, 780 nM; as for `COc1cccc(-c2c(C)n(Cc3c(F)cccc3F)c(=O)n(CC(C)NCc3ccccc3)c2=O)c1` (centres undefined), 280 nM.
Same read-out and setting: under `COc1cccc(-c2c(C)n(Cc3c(F)cccc3F)c(=O)n(C[C@@H](C)N(C)CCc3ccccn3)c2=O)c1` stands 5.2 nM; under `COc1cccc(-c2c(C)n(Cc3c(F)cccc3F)c(=O)n(C[C@H](C)N)c2=O)c1`, 18000 nM; under `COc1cccc(-c2c(C)n(Cc3c(F)cccc3F)c(=O)n(C[C@H]3CCCN3Cc3ccccn3)c2=O)c1`, 32 nM.
`COc1cccc(-c2c(C)n(Cc3c(F)cccc3F)c(=O)n(CC(C)NCCCOCC(C)C)c2=O)c1` (centres undefined) had an inhibitory constant (Ki) in experiment [1] of 81 nM.
On to `COc1cccc(-c2c(C)n(Cc3c(F)cccc3F)c(=O)n(CCNCc3ccccn3)c2=O)c1`, for which the inhibition constant Ki in experiment [1] was found to be 550 nM.
Same read-out and setting: as for `COc1cccc(-c2c(C)n(Cc3c(F)cccc3F)c(=O)n(C[C@@H](C)N)c2=O)c1`, the figure is 2500 nM; as for `COc1cccc(-c2c(C)n(Cc3c(F)cccc3F)c(=O)n(CC(C)NCCc3ccccn3)c2=O)c1` (centres undefined), 170 nM; as for `COc1cccc(-c2c(C)n(Cc3c(F)cccc3F)c(=O)n(C[C@@H]3CCCN3Cc3ccccn3)c2=O)c1`, 210 nM.
As to `COc1cccc(-c2c(C)n(Cc3c(F)cccc3F)c(=O)n(CC(C)N(C)Cc3ccccc3)c2=O)c1` (centres undefined), affinity in experiment [1] was put at a Ki of 310 nM.
